This is an account of results in patent US11739083B2, “Disposable sensor chip with reagent including 2-substituted benzothiazolyl-3-substituted phenyl-5-substituted sulfonated phenyl-2H-tetrazolium salt” (TERUMO KABUSHIKI KAISHA, priority 2016, dated 2023).

The nature of data set [1]: Maximum absorption wavelength (λmax) of formazan-nickel chelate by spectrophotometer. Type of data set: physicochemical. Conditions: chelate of formazan and nickel ion, aqueous MOPS, cell length 10 mm, n=1. The procedure:
10 mM aqueous solution of MOPS was added to each of the formazan compounds so as to obtain a final concentration of […], and thereby 100 μL of a sample was produced. At this time, all of the samples were red-brown in color. Apart from this, a 1 M aqueous solution of nickel ion was produced.
For mixed solutions of various compounds in an aqueous solution of formazan and an aqueous solution of nickel, the spectra were measured with a spectrophotometer (measurement cell length: 10 mm) (n=1). Based on each of the spectra, the maximum absorption wavelength (λmax) (nm) of each of the compounds in formazan was determined. From FIG. 1, it is understood that the maximum absorption wavelength (λmax) of the chelate compound of formazan compound 1 and nickel ion is 630 nm.
The absorbance at the maximum absorption wavelength is denoted as 100%.

Data set [2] is described as follows: Evaluation of sensitivity (colour development with glucose, GDH-FAD, m-PMS, nickel; gradient versus WST-4). The procedure:
Separately, 100 μL of RO water was added to 7 mg of a glucose dehydrogenase that uses flavin adenine dinucleotide (FAD) as a coenzyme (GDH-FAD) (manufactured by TOYOBO CO., LTD., product No.: GLD-351), the enzyme was dissolved, and thus a GDH solution was produced. Furthermore, 200 μL of RO water was added to 3.5 mg of 1-methoxy-5-methylphenazium methyl sulfate (m-PMS) (manufactured by DOJINDO LABORATORIES), and the compound was dissolved therein. Thus, an s-PMS solution was produced. 1 mL of RO water was added to 129 mg of nickel chloride to dissolve the salt, and thus a nickel solution was produced.
40 μL of the reaction solution was added to 10 μL each of an aqueous glucose solution at a concentration of 125 mg/dL, an aqueous glucose solution at a concentration of 250 mg/dL, and an aqueous glucose solution at a concentration of 1,000 mg/dL, and the mixtures were allowed to develop color. The spectra were measured with a spectrophotometer (measurement cell length: 50 μm) (n=1). […] Thus, the gradient (gradientsample) was determined.
40 μL of the control reaction solution was added to 10 μL each of an aqueous glucose solution at a concentration of 125 mg/dL, an aqueous glucose solution at a concentration of 250 mg/dL, and an aqueous glucose solution at a concentration of 1,000 mg/dL, and the mixtures were allowed to develop color. The spectra were measured with a spectrophotometer (measurement cell length: 50 μm) (n=1). For each of the spectra, the absorbance at 650 nm, which is the measurement wavelength (λmax) of WST-4, was measured, and the glucose concentration in the colored solution and the absorbance were plotted on the horizontal axis and the vertical axis, respectively. Thus, the gradient (gradientWST-4) was determined.
FIG. 2 is a graph showing the relationship between the glucose concentration and the absorbance of produced formazan in relation to the tetrazolium compound 1 and WST-4. […] Meanwhile, the gradient serves as an index for the color development intensity of each compound. Therefore, when the value obtained by dividing the gradientsample by the gradientWST-4 (gradientsample/gradientWST-4) is greater than one-fold, it is implied that the intensity of color development on the longer wavelength side is higher compared to WST-4, which is a well-known indicator reagent.

Data set [3] in a line: Evaluation of water-solubility (visual check for precipitate). Format: physicochemical. As to conditions: RO water and 0.5 M MOPS pH 7.2; 200, 100, 20 mM; stirred 5 minutes. As for the experimental part:
After the mixture was stirred for 5 minutes, a precipitate was checked by visual inspection. […] After the mixture was stirred for 5 minutes, a precipitate was checked by visual inspection. […] After the mixture was stirred for 5 minutes, a precipitate was checked by visual inspection.

Data set [4] can be described thus: Evaluation of stability (absorbance increase of measurement solution over 6 hours). As to conditions: FIG. 3; absorbance increase per hour over 6 hours.
Method: To 0.02 mmol of each compound, 75 μL of RO water and 100 μL of a 0.5 M MOPS solution (pH 7.2) were added, and the compound was dissolved therein. The solution was used as a sample.
To 175 μL of this sample, 10 μL of the GDH solution, 5 μL of the m-PMS solution, and 10 μL of the nickel solution, all of which had been produced in the same manner as in the above section (Evaluation of sensitivity), were added, and thereby a measurement solution was produced.
As a control, 85 μL of RO water and 100 μL of a 0.5 M MOPS solution (pH 7.2) were added to 11.6 mg of 2-benzothiazolyl-3-(4-carboxy-2-methoxyphenyl)-5-[4-(2-sulfoethylcarbamoyl)phenyl]-2H-tetrazolium (WST-4), and the compound was dissolved. Thus, a control sample was produced. […] Thus, a control reaction solution was produced.
At the time of production of the measurement solution (0 hour), and after 1 hour, 2 hours, and 6 hours from the production, the spectra of the measurement solutions produced as described above were measured using a spectrophotometer (measurement cell length: 50 μm) (n=1). For each spectrum, the absorbance at the maximum absorption wavelength (λmax) of each compound as determined above was measured. The absorbances measured at the time of production of the measurement solution (0 hour) and after 6 hours from the production were designated as Abs0 h and Abs6 h, respectively. […]

For the substance “2-benzothiazolyl-3-(4-carboxy-2-methoxyphenyl)-5-[4-(2-sulfoethylcarbamoyl)phenyl]-2H-tetrazolium [Comparative Example 5, reference compound]”, in data set [1], the “Maximum absorption wavelength (λmax)” value is listed as “No chelation”. Also, the “gradient (absorbance versus glucose concentration)” value in data set [2] (FIG. 2, compound 1 at its λmax with nickel, WST-4 at 650 nm without nickel) is 0.0026. The “Sensitivity, comparison with Comparative Example 5 (ratio)” value in data set [2] (gradientsample/gradientWST-4) is recorded as 1 times. Also, in data set [3], the Water-solubility entry is reported as “◯ (a precipitate was seen in the 200 mM aqueous solution, but there was no precipitate in the 100 mM aqueous solution)”. Besides, in data set [4], the “[(Abs6 h−Abs0 h)/6] value” is recorded as “about 0.01”.
